Assay results taken from patent US10745389B2, “HDAC6 selective inhibitors, preparation method therefor, and application thereof” (CSTONE PHARMACEUTICALS (SUZHOU) CO., LTD., priority 2017, dated 2020).
pIC50: −log10 of the molar value.

What was measured:
HDAC 1 = HDAC 1 (Homo sapiens, UniProt Q13547); assay: In vitro HDAC enzyme inhibition, fluorescent deacetylation assay (HDAC1); assay type: biochemical
Method: (§1) The degree of deacetylation of the acetylated substrate was determined by detecting the changes in the intensity of the fluorescent signal in the 384-well microplate using EnVision® microplate reader, the half inhibitory comcentration IC50 value of the compound inhibitor was used as a reference to evaluate the inhibitory effect of the compound on the histone deacetylase (HDAC). The compound was diluted by DMSO to 2 mM, and then added to 384 compound plate, then the solution was diluted 3 times, 10 gradients and double duplicate wells using a Bravo automated liquid workstation; then 0.15 μL of the compound was transferred from 384 compound plate to 384 assay plate by Echo liquid handler. 1.2 configuration of the assay buffer: the configuration contains 20 mM Hepes, 137 mM NaCl, 2.7 mM KCl, 1 mM MgCl2, 0.05% BSA, 0.5 mM TCEP of 1× assay buffer, each of which is represented by final concentration thereof. The rapidly dissolving histone deacetylase was added to the 1× assay buffer and mixed well. The 1.5× enzyme mixture was added to a 20 μL to 384-well assay plate, mixed by centrifugation, placed in a 23° C. incubator, and the enzyme was incubated with the compound for 20 minutes. The 3× substrate solution was configured by 1× assay buffer, and then mixed well. 10 μL was added to a 384-well assay plate, mixed by centrifugation, and placed in a 23° C. incubator for 90 minutes for reaction. The terminating mixture of trypsin and the positive compound SAHA (Vorinostat, vorinostat) was configured with 1× assay buffer and mixed well. The reaction was terminated by adding 30 μL to a 384-well assay plate, then centrifuged, and placed in a 23° C. incubator for 60 minutes. After termination of the reaction for 60 minutes, the 384-well assay plate was placed on an Envision micro-plate reader and the fluorescence value was read. 1.7 Data analysation: the data was analyzed by using XLfit5 software to calculate the IC50 value of the compound.

HDAC 6 = target: T1, HDAC 6 (Homo sapiens, UniProt Q9UBN7); assay: In vitro HDAC enzyme inhibition, fluorescent deacetylation assay (HDAC6); assay type: biochemical
T1 sequence (Q9UBN7 1-1215): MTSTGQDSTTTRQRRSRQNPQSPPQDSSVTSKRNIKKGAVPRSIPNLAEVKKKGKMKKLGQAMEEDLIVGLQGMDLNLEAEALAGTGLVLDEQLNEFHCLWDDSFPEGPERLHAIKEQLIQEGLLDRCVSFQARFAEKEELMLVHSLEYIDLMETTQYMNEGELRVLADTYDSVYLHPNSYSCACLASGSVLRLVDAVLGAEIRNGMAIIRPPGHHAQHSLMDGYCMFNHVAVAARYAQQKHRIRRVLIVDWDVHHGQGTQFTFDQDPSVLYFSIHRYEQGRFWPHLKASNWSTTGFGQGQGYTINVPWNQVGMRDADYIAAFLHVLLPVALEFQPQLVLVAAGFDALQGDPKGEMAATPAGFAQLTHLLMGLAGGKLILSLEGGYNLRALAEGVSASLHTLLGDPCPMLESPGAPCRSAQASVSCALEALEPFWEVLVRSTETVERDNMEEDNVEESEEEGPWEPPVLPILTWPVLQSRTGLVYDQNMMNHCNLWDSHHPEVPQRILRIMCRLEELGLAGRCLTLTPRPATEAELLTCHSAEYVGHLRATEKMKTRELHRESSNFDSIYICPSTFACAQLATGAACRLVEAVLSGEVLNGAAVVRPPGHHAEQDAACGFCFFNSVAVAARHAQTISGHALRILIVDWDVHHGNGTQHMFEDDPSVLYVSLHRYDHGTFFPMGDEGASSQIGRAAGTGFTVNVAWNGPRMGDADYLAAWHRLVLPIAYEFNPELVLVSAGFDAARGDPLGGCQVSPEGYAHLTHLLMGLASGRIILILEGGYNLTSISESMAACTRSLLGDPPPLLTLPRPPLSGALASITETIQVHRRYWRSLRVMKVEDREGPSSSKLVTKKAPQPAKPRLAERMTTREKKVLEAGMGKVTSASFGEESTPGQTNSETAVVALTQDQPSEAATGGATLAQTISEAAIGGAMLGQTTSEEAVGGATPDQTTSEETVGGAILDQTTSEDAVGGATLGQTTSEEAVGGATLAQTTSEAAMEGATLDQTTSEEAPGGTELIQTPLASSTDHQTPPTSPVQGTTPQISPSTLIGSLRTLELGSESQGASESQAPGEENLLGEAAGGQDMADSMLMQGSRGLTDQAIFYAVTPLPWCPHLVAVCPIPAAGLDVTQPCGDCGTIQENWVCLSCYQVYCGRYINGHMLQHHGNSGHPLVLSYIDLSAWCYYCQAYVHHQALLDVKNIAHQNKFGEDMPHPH
Method: as §1

[1] = Pharmacokinetic evaluation in male beagle dogs; assay type: in vivo; conditions: plasma, male beagle dog
Method: Purpose of the experiment: test the compound's pharmacokinetics in male beagle dogs
Experimental materials: Beagle (male, 6-15 kg, 6 months-4 age, Marshall Bioresources, Beijing, China)
The Beagle's pharmacokinetic characteristics after oral administration of the compound were tested by a standard scheme. In the experiment, the candidate compound was formulated into a uniform suspension and administered to a beagle dog for single oral administration. Oral menstruum was formed by a certain proportion of polyethylene glycol-polyoxyethylene castor oil aqueous solution. Blood samples within 24 hours was collected, then centrifuged at 3000 g for 10 minutes, the supernatant was separated to obtain plasma samples, 30 μL of plasma samples was added into 300 μL of internal standard acetonitrile solution to precipitate protein, 30 μL of supernatant was obtained after vortex and centrifugation, and then equal volume of water was added, followed by vortex and centrifugation for another time to collect the supernatant, and the plasma concentration was quantitatively analyzed by LC-MS/MS analysis, and the pharmacokinetic parameters such as peak concentration, peak-reached time, half-life, and area under the administrating curve were calculated.

HDAC 1, sequence (Q13547 whole entry, species assumed): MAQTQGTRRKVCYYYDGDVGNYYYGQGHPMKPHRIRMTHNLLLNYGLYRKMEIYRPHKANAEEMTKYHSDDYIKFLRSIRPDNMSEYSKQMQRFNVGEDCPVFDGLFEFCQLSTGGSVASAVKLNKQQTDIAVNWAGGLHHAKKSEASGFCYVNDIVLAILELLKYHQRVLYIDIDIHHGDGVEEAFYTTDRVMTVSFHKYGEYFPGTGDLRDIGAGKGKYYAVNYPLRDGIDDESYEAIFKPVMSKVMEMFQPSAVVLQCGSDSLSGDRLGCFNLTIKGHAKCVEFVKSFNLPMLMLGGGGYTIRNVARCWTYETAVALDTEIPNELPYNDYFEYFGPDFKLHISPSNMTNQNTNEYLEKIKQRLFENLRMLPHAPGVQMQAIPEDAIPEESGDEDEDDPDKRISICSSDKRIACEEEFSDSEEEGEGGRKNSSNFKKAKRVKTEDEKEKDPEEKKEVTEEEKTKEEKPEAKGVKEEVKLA

SMILES | pIC50 (HDAC 1) | pIC50 (HDAC 6) | half-life ([1]; oral, read-out: Half-life T1/2 (converted)) [h] | AUC ([1]; single oral administration, read-out: Integrated concentration AUC) [µM·h] | bioavailability ([1]; single oral administration, read-out: bioavailability F (%)) [%] | clearance ([1]; read-out: Clearance rate) [mL/min/kg]
O=C(NO)c1ccc(Cn2ccc(C3(c4ccc(F)cc4)CCO3)c(F)c2=O)cc1 (centres unmarked) [Embodiment13] | 6.70 to 7.30 | ≥ 8.00 | – | – | – | –
O=C(NO)c1ccc(NC(=O)c2ccc(C3(c4ccc(F)cc4)CCCO3)cc2)cc1 (centres unmarked) [Embodiment25] | < 6.70 | 7.30 to 8.00 | – | – | – | –
CC(C)C1(c2ccn(Cc3ccc(C(=O)NO)cc3)c(=O)c2)CCCO1 (centres unmarked) [Embodiment1] | < 6.70 | ≥ 8.00 | – | – | – | –
O=C(NO)c1ccc(Cn2ccc(C3(c4ccc(F)cc4)CCCO3)cc2=O)cn1 (centres unmarked) [Embodiment9] | < 6.70 | 6.70 to 7.30 | – | – | – | –
O=C(NO)c1ccc(CNc2ccc(C3(c4ccc(F)cc4)CCCO3)cc2)cc1 (centres unmarked) [Embodiment23] | < 6.70 | 7.30 to 8.00 | – | – | – | –
O=C(NO)c1ccc(Cn2ccc(C3(c4ccc(F)cc4)COCCO3)cc2=O)cc1 (centres unmarked) [Embodiment17] | 6.70 to 7.30 | ≥ 8.00 | – | – | – | –
O=C(NO)c1ccc(Cn2ccc(C3(c4ccc(F)cc4)OCCO3)cc2=O)cc1 [Embodiment16] | 6.70 to 7.30 | ≥ 8.00 | – | – | – | –
O=C(NO)c1ccc(Cn2ccc(C3(c4ccc(F)cc4)CCCO3)cc2=O)nc1 (centres unmarked) [Embodiment7] | < 6.70 | ≥ 8.00 | – | – | – | –
O=C(NO)c1cnc(Cn2ccc(C3(c4ccc(F)cc4)CCCO3)cc2=O)nc1 (centres unmarked) [Embodiment8] | < 6.70 | ≥ 8.00 | – | – | – | –
O=C(NO)c1ccc(CNC(=O)c2ccc(C3(c4ccc(F)cc4)CCCO3)cc2)cc1 (single isomer, unassigned) [Embodiment22] | 6.70 to 7.30 | ≥ 8.00 | – | – | – | –
O=C(NO)c1ccc(Cn2cc(F)c(C3(c4ccc(F)cc4)CCCO3)cc2=O)cc1 (centres unmarked) [Embodiment11] | 6.70 to 7.30 | ≥ 8.00 | – | – | – | –
O=C(NO)c1ccc(Cn2ccc(C3(c4ccc(F)cc4)CCCO3)c(F)c2=O)cc1 (centres unmarked) [Embodiment14] | 6.70 to 7.30 | ≥ 8.00 | – | – | – | –
O=C(NO)c1ccc(Nc2ccc(C3(c4ccc(F)cc4)CCCO3)cc2)cc1 (centres unmarked) [Embodiment24] | < 6.70 | 7.30 to 8.00 | – | – | – | –
O=C(NO)c1ccc(CNC(=O)c2ccc(C3(c4ccc(F)cc4)CCCO3)cc2)cc1 (centres unmarked) [Embodiment20] | 6.70 to 7.30 | ≥ 8.00 | – | – | – | –
O=C(NO)c1ccc(CNC(=O)c2ccc(C3(c4ccc(F)cc4)CCCO3)cc2)cc1 (single isomer, unassigned) [Embodiment21] | 6.70 to 7.30 | ≥ 8.00 | – | – | – | –
O=C(NO)c1ccc(CNC(=O)c2ccc(C3(c4ccc(F)cc4)CCCO3)cn2)cc1 (centres unmarked) [Embodiment26] | 6.70 to 7.30 | ≥ 8.00 | 2.14 | 13.3 | 53.1 | 16

Results, then the compound that gave them:

pIC50 (HDAC 1) | pIC50 (HDAC 6) | half-life ([1]; oral, read-out: Half-life T1/2 (converted)) [h] | AUC ([1]; single oral administration, read-out: Integrated concentration AUC) [µM·h] | bioavailability ([1]; single oral administration, read-out: bioavailability F (%)) [%] | clearance ([1]; read-out: Clearance rate) [mL/min/kg] | SMILES
6.70 to 7.30 | ≥ 8.00 | – | – | – | – | O=C(NO)c1ccc(Cn2ccc(C3(c4ccc(F)cc4)CCCCO3)cc2=O)cc1 (centres unmarked) [Embodiment15]
< 6.70 | ≥ 8.00 | – | – | – | – | CC1(c2ccn(Cc3ccc(C(=O)NO)cc3)c(=O)c2)CCCO1 (centres unmarked) [Embodiment2]
6.70 to 7.30 | ≥ 8.00 | – | – | – | – | O=C(NO)c1ccc(Cn2ccc(C3(c4ccc(F)cc4)CCCO3)cc2=O)cc1 (single isomer, unassigned) [Embodiment4]
6.70 to 7.30 | ≥ 8.00 | – | – | – | – | O=C(NO)c1ccc(Cn2ccc(C3(c4ccccn4)CCCO3)cc2=O)cc1 (centres unmarked) [Embodiment18]
6.70 to 7.30 | ≥ 8.00 | – | – | – | – | O=C(NO)c1ccc(Cn2ccc(C3(c4ccncc4)CCCO3)cc2=O)cc1 (centres unmarked) [Embodiment19]
6.70 to 7.30 | ≥ 8.00 | – | – | – | – | O=C(NO)c1ccc(Cn2ccc(C3(c4ccc(F)cc4F)CCCO3)cc2=O)cc1 (centres unmarked) [Embodiment6]
6.70 to 7.30 | ≥ 8.00 | – | – | – | – | O=C(NO)c1ccc(Cn2ccc(C3(c4ccc(F)cc4)CCCO3)cc2=O)cc1 (centres unmarked) [Embodiment3]
< 6.70 | 7.30 to 8.00 | – | – | – | – | O=C(NO)c1ccc(Cn2ccc(C3(c4c(F)cc(F)cc4F)CCCO3)cc2=O)cc1 (centres unmarked) [Embodiment10]
6.70 to 7.30 | ≥ 8.00 | – | – | – | – | O=C(NO)c1ccc(Cn2ccc(C3(c4ccc(F)cc4)CCO3)cc2=O)cc1 (centres unmarked) [Embodiment12]
6.70 to 7.30 | ≥ 8.00 | – | – | – | – | O=C(NO)c1ccc(Cn2ccc(C3(c4ccc(F)cc4)CCCO3)cc2=O)cc1 (single isomer, unassigned) [Embodiment5]
